Here are results for five compounds from patent publication US10752647B2, “N-phosphonoxymethyl prodrugs of hydroxyalkyl thiadiazole derivatives” (DAIICHI SANKYO COMPANY, LIMITED, priority 2017, dated 2020).

Data set [1] can be described thus: Solubility of parent compounds and prodrugs in phosphate buffer. In kind it is physicochemical. Conditions: aqueous buffer, thermodynamic from solid; parent compound, phosphate buffer, 25° C., more than 4 weeks, pH 7.0. The procedure: Parent compounds: About 5 mg of parent compounds (biologically active forms of prodrugs) were added to 950 μL of phosphate buffer, and mixed vigorously for 1 hour at 25° C. Then, these samples were stored at 25° C. for more than 4 weeks and filtered to remove undissolved parent compounds. Next, these solutions were diluted with 50% aqueous acetonitrile solution. The resulting test solutions were assayed by HPLC. Prodrugs: About 30 mg of prodrugs were added to 120 μL of phosphate buffer, and mixed vigorously for 1 hour at 25° C. After shaking, pH of these solutions were adjusted at pH 7.0 by 1 mol/L NaOH solution. Then, the total volume were adjusted to 280 μL with purified water. Next, these solutions were stored at 25° C. for more than 4 weeks and filtered to remove undissolved compounds. These solutions were diluted with 50% aqueous acetonitrile solution. The resulting test solutions were assayed by HPLC.

Data set [2] is described as follows: Conversion efficiency / PK profile after IV dose in rats (Compounds No. 5 and No. 7). In kind it is in vivo. The settings on record: Rat, plasma, parent compound IV 1 mg/kg; read-out: Parent compound AUCinf. On the procedure: Determination of conversion efficiency of Compound No. 5 and Compound No. 7 was conducted in rats. Animals were divided in two groups with two animals in each group. One group received an IV dose of prodrug and the other group received an IV dose of parent compound. Serial blood sampling was carried out at 0.08, 0.25, 0.5, 1, 2, 4, 7, and 24 h post dose from both of the animal groups. Blood samples were centrifuged to harvest plasma. Plasma samples of prodrug administered animals were simultaneously analyzed for both analytes (prodrug and parent compound) using LC-MS/MS. AUC of plasma concentrations versus time profiles were calculated in WinNonlin software and percentage conversion efficiency was determined using the formula: Percentage conversion efficiency=(AUCiv of parent compound from prodrug administered samples)/(AUCiv of parent compound from parent compound administered samples)/(molecular weight of parent compound)×(molecular weight of prodrug)×100. PK profile of Compound No. 5 and Compound No. 7 in rats are depicted in Table 7.

Data set [3] is described as follows: Solubility of parent compounds and prodrugs in phosphate buffer. In kind it is physicochemical. The settings on record: aqueous buffer, thermodynamic from solid; prodrug, phosphate buffer adjusted with NaOH, 25° C., more than 4 weeks, pH 7.2.
A further data set concerns animal infection models. The settings on record: compound of WO 2009/084614; cited from earlier work.
Data set [4] can be described thus: Conversion efficiency / PK profile after IV dose in monkeys. The settings on record: Monkey, plasma, parent compound IV 1 mg/kg; read-out: Parent compound AUCinf. In kind it is in vivo. On the procedure: (§1) Method of Testing Conversion Efficiency Determination of conversion efficiency of Compound No. 1 and Compound No. 2 was conducted in rodents (mice and rats) and non-rodents (monkeys and dogs). Animals were divided in two groups with two animals in each group. One group received an intravenous (IV) dose of prodrug and the other group received an IV dose of parent compound. The dose of prodrug was taken as molar equivalent dose of parent compound. Serial blood sampling was carried out at 0.083, 0.33, 1, 2, 4, 8 and 24 h post IV dose from both the animal groups. Blood samples were centrifuged to harvest plasma. Plasma samples were stored at −80° C. until analysis. Plasma samples of prodrug administered animals were simultaneously analyzed for both analytes (prodrug and parent compound) using LC-MS/MS. Area under the curve (AUC) of plasma concentrations versus time profiles were calculated in WinNonlin software and percentage conversion efficiency was determined using the formula: Percentage conversion efficiency=(AUCiv of parent compound (from prodrug administered samples)×100/(AUCiv of parent compound (from parent compound administered samples). PK profile of Compounds No. 1 and No. 2 in rats, dogs and monkeys are depicted in Table 5 and 6, respectively (also shown in FIGS. 1 and 2).

A short description of data set [5]: Conversion efficiency / PK profile after IV dose in dogs. Format: in vivo. The settings on record: Dog, plasma, parent compound IV 1 mg/kg; read-out: Parent compound AUCinf. The procedure: as §1
A short description of data set [6]: Conversion efficiency / PK profile after IV dose in rats (Compounds No. 1 and No. 2). Format: in vivo. The settings on record: Rat, plasma, parent compound IV 12.5 mg/kg; read-out: Parent compound AUCinf. The procedure:
as §1

Structures are written as SMILES. Values after ≈ are worked out from the molar mass of the structure shown.

A word on the solubility: it is the concentration that dissolves in the medium under given conditions. On to `CCc1[nH]c(C(=O)N[C@@H]2CCN(c3nnc([C@H](O)CO)s3)C[C@@H]2OC)nc1Cl` [Compound C, 4-chloro-N-[(3S,4R)-1-{5-[(1R)-1,2-dihydroxyethyl]-1,3,4-thiadiazol-2-yl}-3-methoxypiperidin-4-yl]-5-ethyl-1H-imidazole-2-carboxamide], for which, in data set [1], the solubility amounted to 2440 µg/mL (≈ 5.67 mM). In addition, the AUC(0-inf) in data set [2] was determined as 990 ng·h/mL. On to `CCc1[nH]c(C(=O)N[C@@H]2CCN(c3nnc(C(C)O)s3)C[C@@H]2OC)nc1Cl` (stereo partly drawn) [Compound D, 4-chloro-5-ethyl-N-{(3S,4R)-1-[5-(1-hydroxyethyl)-1,3,4-thiadiazol-2-yl]-3-methoxypiperidin-4-yl}-1H-imidazole-2-carboxamide], for which the solubility in data set [1] is 752 µg/mL (≈ 1.81 mM). For the same compound, the AUC(0-inf) in data set [2] was determined as 3110 ng·h/mL. Regarding `CCc1c(Cl)nc(C(=O)N[C@@H]2CCN(c3nnc([C@@H](O)CO)s3)C[C@@H]2OC)n1COP(=O)(O)O` [Compound No. 9, [4-Chloro-2-({(3S,4R)-1-[5-(1,2-dihydroxyethyl)-1,3,4-thiadiazol-2-yl]-3-methoxypiperidin-4-yl}carbamoyl)-5-ethyl-1H-imidazol-1-yl]methyl dihydrogen phosphate], in data set [3], the solubility is 102000 µg/mL.

Turning to `CCO[C@H]1CN(c2nncs2)CC[C@H]1NC(=O)c1nc(Cl)c(CC)[nH]1` [Compound No. 150], the “Efficacy in animal infection models” value with animal infection models is “not being efficacious”.

Regarding `CCc1[nH]c(C(=O)N[C@@H]2CCN(c3nnc(C(C)(C)O)s3)C[C@@H]2OC)nc1Cl` [Parent compound of Compound No. 1, 4-chloro-5-ethyl-N-{(3S,4R)-1-[5-(1-hydroxy-1-methylethyl)-1,3,4-thiadiazol-2-yl]-3-methoxypiperidin-4-yl}-1H-imidazole-2-carboxamide], the AUC(0-inf) turned out to be 6250 ng·h/mL in data set [4], 29400 ng·h/mL in data set [5] and 17700 ng·h/mL in data set [6].
